Data on ten compounds can be found in publication PMC9495854, “Novel Phenothiazine/Donepezil-like Hybrids Endowed with Antioxidant Activity for a Multi-Target Approach to the Therapy of Alzheimer’s Disease” (Antioxidants, 2022).

Data set [1] is described as follows: MTT cell viability assay, SH-SY5Y. It is filed as cell-based. Particulars: human, SH-SY5Y cells, SHSY-5Y; for IC50 at 1 h: 1 h exposure; for IC50 at 24 h: 24 h exposure, read-out: MTT cytotoxicity IC50 ± SEM SHSY-5Y 24 h. The procedure: (§1) Human hepatocellular liver carcinoma (HepG2) cell line and human neuroblastoma cell line, SH-SY5Y, were purchased from the American Type Culture Collection (ATCC, Manassas, VA, USA) and maintained at 37 °C in a humidified atmosphere (95% air and 5% carbon dioxide), and they were periodically screened for contamination. HepG2 cells were cultured in Eagle’s Minimum Essential Medium (MEM, Euroclone S.p.A., Pero, MI, Italy), supplemented with 10% Fetal Bovine Serum (FBS, Euroclone S.p.A., Pero, MI, Italy), 1% L-glutamine (Euroclone S.p.A., Pero, MI, Italy), 100 U/mL penicillin/streptomycin (Euroclone S.p.A., Pero, MI, Italy), 1% Non-Essential Amino Acids (NEAA, Euroclone S.p.A., Pero, MI, Italy). SH-SY5Y cells were grown in a 1:1 mixture of Dulbecco’s modified Eagle’s medium (DMEM)—high glucose (Euroclone S.p.A., Pero, MI, Italy) and Ham’s F12 Medium (Euroclone S.p.A., Pero, MI, Italy) supplemented with 10% FBS, 1% L-glutamine and 100 U/mL penicillin/streptomycin. For cell assays, cells were trypsinized using Trypsin-EDTA 1X in PBS (Euroclone S.p.A., Pero, MI, Italy).
HepG2 and SH-SY5Y cell viability was assessed as previously reported by using a conventional 3-(4,5-dimethylthiazol-2-yl)-2,5-diphenyltetrazolium bromide (MTT) assay. In brief, viable cells were seeded and grown for 24 h into a sterile 96-well cell culture cluster (Corning, Sigma-Aldrich, St. Louis, MO, USA) in a complete medium and maintained at 37 °C in a humidified atmosphere with 5% CO2. The cells were then added with different concentrations of each compound for a period of 1 h or 24 h. At the end, the culture medium was replaced by a solution of 0.5 mg/mL MTT (Sigma-Aldrich, St. Louis, MO, USA) in PBS. After 2 h of incubation at 37 °C in 5% CO2, the supernatant was carefully removed from each well, and the formazan crystals were dissolved in DMSO. The absorbance values were measured at 570 nm using Tecan Infinite M1000 Pro (Tecan, Cernusco S.N., Italy) and DMSO medium as blank solution. The results were reported as % cell viability = [optical density (OD) of tested compound/medium OD of control cells] × 100. The results are expressed as mean ± SEM of at least three independent measurements in triplicate.
(Tetrazolium dyes change colour on reduction, which living cells bring about.)

The subject of a further data set is HepG2 cells. The data set is described as follows: DCFH-DA cell-based antioxidant assay (H2O2-induced oxidation), HepG2. The following applies: Homo sapiens, 1 h compound, 100 μM H2O2, read-out: DCFDH-DA IC50 ± SEM HepG2. The procedure:
as §1, with “HepG2” for “Human hepatocellular liver carcinoma (HepG2) cell line and human neuroblastoma cell line, SH-SY5Y, were purchased from the American Type Culture Collection (ATCC, Manassas, VA, USA) and maintained at 37 °C in a humidified atmosphere (95% air and 5% carbon dioxide), and they were periodically screened for contamination. HepG2”
According to a slightly modified procedure already reported in the literature, the generation of ROS was determined using an oxidation-sensitive fluorescent probe, 2′,7′-dichlorodihydrofluorescein diacetate (DCFH-DA, D6665; Sigma-Aldrich, St. Louis, MO, USA). Briefly, viable cells were seeded in a black 96-well cell culture plate (Costar, Sigma-Aldrich, St. Louis, MO, USA) and after 24 h were incubated with different concentrations (0.1–100 µM) of each compound for 1 h at 37 °C in 5% CO2. […] After washing using PBS, 100 μM H2O2 in medium without serum was added to each well and the cells were incubated for an additional 30 min. The formation of fluorescent dichlorofluorescein (DCF) due to oxidation of DCFH in the presence of ROS, was read at 530 nm using a microplate reader Tecan Infinite M1000 Pro (Tecan, Cernusco S.N., Italy) and DMSO medium was used for control cells. The results are expressed as mean ± SEM of at least three independent measurements in triplicate.

A further data set concerns the target T1, FAAH Human recombinant (Homo sapiens, UniProt O00519).
T1 construct: purchased Cayman Chemical
T1 sequence (O00519 1-579): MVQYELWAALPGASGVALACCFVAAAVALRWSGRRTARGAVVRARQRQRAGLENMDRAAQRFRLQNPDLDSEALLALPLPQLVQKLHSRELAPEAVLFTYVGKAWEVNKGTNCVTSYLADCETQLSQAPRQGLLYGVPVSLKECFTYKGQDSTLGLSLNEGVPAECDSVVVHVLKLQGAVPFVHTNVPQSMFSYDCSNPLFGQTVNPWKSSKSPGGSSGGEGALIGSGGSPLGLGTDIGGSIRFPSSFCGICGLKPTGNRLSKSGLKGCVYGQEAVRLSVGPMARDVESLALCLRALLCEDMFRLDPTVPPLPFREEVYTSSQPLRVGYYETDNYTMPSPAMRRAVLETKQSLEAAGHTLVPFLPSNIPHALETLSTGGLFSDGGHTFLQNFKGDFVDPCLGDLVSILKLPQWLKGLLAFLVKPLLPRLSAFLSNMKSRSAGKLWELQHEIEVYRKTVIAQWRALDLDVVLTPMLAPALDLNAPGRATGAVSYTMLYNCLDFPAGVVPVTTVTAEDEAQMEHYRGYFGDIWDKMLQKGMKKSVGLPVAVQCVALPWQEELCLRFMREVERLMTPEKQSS
As to the kind of experiment: FAAH inhibition, fluorometric assay. The following applies: mean ± SEM; read-out: hFAAH (IC50). It is filed as biochemical. The procedure:
The fatty acid amide hydrolase inhibition was measured for the final compounds using 96-well black flat-bottom microtiter NBS plates (COSTAR flat black). The total volume was 150 µL: the single hybrid was pre-incubated at different concentrations with the enzyme (FAAH Human recombinant, Cayman Chemical, Ann Arbor, MI, USA) in the specific fluorometric assay buffer (tris-HCl 125 mM, Na2EDTA · 2H2O 1 mM, pH = 9.0) for ten minutes at RT, using an orbital shaker. A 50 μL solution of the substrate (7-amino-4-methyl-2H-1-benzopyran-2-one-5Z,8Z,11Z,14Z-eicosatetraen-amide, at a final concentration of 5 µM) was then added. The plates were then incubated for 1 h at 37 °C in a Tecan Infinite M1000 Pro (Tecan, Cernusco S.N., Italy), reading fluorescence values from each well every 30s (λex = 340 nm, λem = 450 nm). The inhibitor activity was expressed as relative fluorescence units (RFU), using the values obtained from control wells lacking the inhibitor and blank wells lacking both inhibitor and enzyme to calculate percent inhibition values for each well. IC50 values are expressed as mean ± SEM of at least two independent measurements performed in triplicate.

As a reminder, the IC50 is the point on the concentration scale where inhibition reaches its midpoint. Take `O=C(NCC1CCN(Cc2ccccc2)CC1)c1ccc2c(c1)Nc1ccccc1S2` [Compound 11a, N-((1-Benzylpiperidin-4-yl)methyl)-10H-phenothiazine-2-carboxamide]: in data set [1], the IC50 at 1 h is over 100 µM and the IC50 at 24 h was over 100 µM. Also, the IC50 with HepG2 cells worked out at 8.31 ± 1.4 µM. The IC50 at FAAH Human recombinant worked out at 22.6 ± 1.6 µM.
With `O=C(NCC1CCN(Cc2ccccc2Cl)CC1)c1ccc2c(c1)Nc1ccccc1S2` [Compound 11b, N-((1-(2-Chlorobenzyl)piperidin-4-yl)methyl)-10H-phenothiazine-2-carboxamide], in data set [1], the concentration for half-maximal inhibition (IC50) at 1 h was over 100 µM and the IC50 at 24 h was 21.2 ± 1 µM. Besides, the IC50 in the data set with HepG2 cells was found to be 55.3 ± 1.1 µM. Moreover, the IC50 on FAAH Human recombinant came out at 3.8 ± 0.9 µM.
Consider `Cc1ccccc1CN1CCC(CNC(=O)c2ccc3c(c2)Nc2ccccc2S3)CC1` [Compound 11c, N-((1-(2-Methylbenzyl)piperidin-4-yl)methyl)-10H-phenothiazine-2-carboxamide], for which, in data set [1], the IC50 at 1 h is over 100 µM and the IC50 at 24 h came to 15.2 ± 1.2 µM. Besides, in the data set with HepG2 cells, the IC50 worked out at 17.6 ± 0.5 µM. Also, the IC50 at FAAH Human recombinant came out at 3.08 ± 0.44 µM.
For `O=C(NCC1CCN(Cc2ccccc2F)CC1)c1ccc2c(c1)Nc1ccccc1S2` [Compound 11d, N-((1-(2-Fluorobenzyl)piperidin-4-yl)methyl)-10H-phenothiazine-2-carboxamide], in that order: over 100 µM, 9.33 ± 0.86 µM, 1.82 ± 0.6 µM and 5.06 ± 0.4 µM.
For `COc1cccc(CN2CCC(CNC(=O)c3ccc4c(c3)Nc3ccccc3S4)CC2)c1` [Compound 11e, N-((1-(3-Methoxybenzyl)piperidin-4-yl)methyl)-10H-phenothiazine-2-carboxamide], in that order: over 100 µM, 29 ± 1.1 µM, 3.21 ± 0.5 µM and 13 ± 3.4 µM.
On the same counts, the results for `O=C(NCCN1CCN(Cc2ccccc2)CC1)c1ccc2c(c1)Nc1ccccc1S2` [Compound 12a, N-(2-(4-Benzylpiperazin-1-yl)ethyl)-10H-phenothiazine-2-carboxamide] are over 100 µM, over 100 µM, 1.13 ± 0.41 µM and 41.4 ± 0.9 µM.
`O=C(NCCN1CCN(Cc2ccccc2Cl)CC1)c1ccc2c(c1)Nc1ccccc1S2` [Compound 12b, N-(2-(4-(2-Chlorobenzyl)piperazin-1-yl)ethyl)-10H-phenothiazine-2-carboxamide]: in data set [1], the IC50 at 1 h is over 100 µM and the IC50 at 24 h is 31.8 ± 2 µM. In the data set on HepG2 cells, the IC50 came to 18.7 ± 0.2 µM. For the same compound, at FAAH Human recombinant, the IC50 stood at 6.31 ± 1.28 µM.
In the case of `Cc1ccccc1CN1CCN(CCNC(=O)c2ccc3c(c2)Nc2ccccc2S3)CC1` [Compound 12c, N-(2-(4-(2-Methylbenzyl)piperazin-1-yl)ethyl)-10H-phenothiazine-2-carboxamide], in data set [1], the IC50 at 1 h is over 100 µM and the IC50 at 24 h is over 100 µM. Besides, in the data set on HepG2 cells, the IC50 turned out to be 4.21 ± 0.81 µM. For the same compound, at FAAH Human recombinant, the IC50 stood at 7.33 ± 0.86 µM.
Regarding `O=C(NCCN1CCN(Cc2ccccc2F)CC1)c1ccc2c(c1)Nc1ccccc1S2` [Compound 12d, N-(2-(4-(2-Fluorobenzyl)piperazin-1-yl)ethyl)-10H-phenothiazine-2-carboxamide], in data set [1], the IC50 at 1 h was over 100 µM and the IC50 at 24 h was over 100 µM. Further, the IC50 in the data set on HepG2 cells came out at 14.6 ± 0.5 µM. Besides, the IC50 at FAAH Human recombinant was 9.65 ± 2.45 µM.
Consider `CC(=O)N1c2ccccc2Sc2ccc(C(=O)NCCN3CCN(Cc4ccccc4Cl)CC3)cc21` [Compound 13, 10-Acetyl-N-(2-(4-(2-chlorobenzyl)piperazin-1-yl)ethyl)-10H-phenothiazine-2-carboxamide], for which, in data set [1], the IC50 at 1 h was over 100 µM and the IC50 at 24 h came out at 55.3 ± 1.22 µM. Moreover, in the data set on HepG2 cells, the IC50 was 0.63 ± 0.1 µM. The IC50 at FAAH Human recombinant was found to be 16.9 ± 4.4 µM.
